Test results taken from patent publication US7238801B2, “Phthalocyanine compound, method for production thereof, and near infrared absorbing dye and near infrared absorbing filter using same” (Nippon Shokubai Co., Ltd., priority 2002, dated 2007).
Where two headings read alike, the source gives them in different places.

What was measured:
Assay type in all cases: physicochemical
[1] = Maximum absorption wavelength by spectrophotometer
Experimental: Now, working examples and comparative examples will be described below. The maximum absorption wavelengths (λmax) reported in this invention are magnitudes determined in acetone.
The phthalocyanine compound obtained in the present example, i.e. VOPc(PhS)8{2,6-(CH3)2PhO}4{(C2H5)2NCH2CH2NH}4, was tested for maximum absorption wavelengths in acetone and in chloroform by the use of a spectrophotometer (made by Shimadzu Seisakusho Ltd. and sold under the trademark designation of “UVl-3100”).

[2] = Solubility in toluene and methyl ethyl ketone at room temperature; details: 10 ml, room temperature (25° C.), visual; for Solubility MEX: methyl ethyl ketone
From the text: The solubility shown in Table 23 represents the data obtained by rating the relevant values on the […] scale, wherein ⊚ stands for a value of not less than 5% by weight, ◯ for a value of not less than 1% by weight and less than 5% by weight, Δ for a value of not less than 0.1% by weight and less than 1% by weight, and X for a value of less than 0.1% by weight.

[3] = Maximum absorption wavelength by spectrophotometer; remark: listed apart in the source

CuPc(2,5-Cl2PhO)8{2,6-(CH3)2PhO}4(PhCH2NH)4 [reference compound]
Max. absorption wavelength (in acetone) [1]: 807 nm

VOPc(2,5-Cl2PhO)8{2,6-Br2-4-CH3PhO}4 {Ph(CH)3CHNH}3]F [reference compound]
Max. absorption wavelength (in acetone) [1]: 840 nm

VOPc(4-CNPhO)8{2,6-(CH3)2PhO}4{Ph(CH)3CHNH}3F [reference compound]
Max. absorption wavelength (in acetone) [1]: 834 nm

VOPc(PhS)8{2,6-(CH3)2PhO}4{CH3(CH2)5NH}4 [Example 15]
Max. absorption wavelength (in acetone) [1]: 930 nm
Max. absorption wavelength (in chloroform) [1]: 948 nm
Solubility MEX [2]: ⊚ (a value of not less than 5% by weight)
Solubility toluene [2]: ⊚ (a value of not less than 5% by weight)

VOPc(2,5-Cl2PhO)8{2,6-(CH3)2PhO}4(PhCH2NH)4 [reference compound]
Max. absorption wavelength (in acetone) [1]: 870 nm

VOPc{4-(CH3O)PhS}8{2,6-(CH3)2PhO}4{CH3(CH2)3CH(C2H5)CH2NH}4 [Example 17]
Max. absorption wavelength (in acetone) [1]: 960 nm
Max. absorption wavelength (in chloroform) [1]: 980 nm
Solubility MEX [2]: ⊚ (a value of not less than 5% by weight)
Solubility toluene [2]: ⊚ (a value of not less than 5% by weight)
Max. absorption wavelength (in acetone) [3]: 962 nm

VOPc(2,5-Cl2PhO)8{2,6-(CH3)2PhO}4{Ph(CH)3CHNH}3]F [reference compound]
Max. absorption wavelength (in acetone) [1]: 834 nm

VOPc(PhS)8{2,6-(CH3)2PhO}4{CH3(CH2)7NH}4 [Example 18]
Max. absorption wavelength (in acetone) [1]: 931 nm
Max. absorption wavelength (in chloroform) [1]: 950 nm
Solubility MEX [2]: ⊚ (a value of not less than 5% by weight)
Solubility toluene [2]: ⊚ (a value of not less than 5% by weight)

VOPc(PhS)8{2,6-(CH3)2PhO}4{CH3(CH2)3CH(C2H5)CH2NH}4 [Example 16]
Max. absorption wavelength (in acetone) [1]: 939 nm
Max. absorption wavelength (in chloroform) [1]: 958 nm
Solubility MEX [2]: ⊚ (a value of not less than 5% by weight)
Solubility toluene [2]: ⊚ (a value of not less than 5% by weight)

VOPc(PhS)8{2,6-(CH3)2PhO}4{(CH3CH2O(CH2)3NH}4 [Example 8]
Max. absorption wavelength (in acetone) [1]: 928 nm
Max. absorption wavelength (in chloroform) [1]: 947 nm
Solubility MEX [2]: ⊚ (a value of not less than 5% by weight)
Solubility toluene [2]: ⊚ (a value of not less than 5% by weight)

VOPc{2-(CH3O)PhS}8{2,6-(CH3)2PhO}4{(C2H5)2NCH2CH2NH}4 [Example 2]
Max. absorption wavelength (in acetone) [1]: 950 nm
Max. absorption wavelength (in chloroform) [1]: 970 nm
Solubility MEX [2]: ⊚ (a value of not less than 5% by weight)
Solubility toluene [2]: ⊚ (a value of not less than 5% by weight)

VOPc(PhS)8{2,6-(CH3)2PhO}4{(C2H5)2NCH2CH2NH}4 [Example 1]
Max. absorption wavelength (in acetone) [1]: 941 nm
Max. absorption wavelength (in chloroform) [1]: 960 nm
Solubility MEX [2]: ⊚ (a value of not less than 5% by weight)
Solubility toluene [2]: ⊚ (a value of not less than 5% by weight)

VOPc(PhS)8{2,6-(CH3)2PhO}4{CH3(CH2)3CH(C2H5)CH2O(CH2)3NH}4 [Example 11]
Max. absorption wavelength (in acetone) [1]: 933 nm
Max. absorption wavelength (in chloroform) [1]: 952 nm
Solubility MEX [2]: ⊚ (a value of not less than 5% by weight)
Solubility toluene [2]: ⊚ (a value of not less than 5% by weight)

VOPc(PhS)8{2,6-(CH3)2PhO}4{CH3(CH2)3O(CH2)3NH}4 [Example 10]
Max. absorption wavelength (in acetone) [1]: 930 nm
Max. absorption wavelength (in chloroform) [1]: 950 nm
Solubility MEX [2]: ⊚ (a value of not less than 5% by weight)
Solubility toluene [2]: ⊚ (a value of not less than 5% by weight)

VOPc(PhS}8{2,6-(CH3)2PhO}4[{CH3(CH2)2CH}2NCH2CH2NH]4 [Example 4]
Max. absorption wavelength (in acetone) [1]: 944 nm
Max. absorption wavelength (in chloroform) [1]: 963 nm
Solubility MEX [2]: ⊚ (a value of not less than 5% by weight)
Solubility toluene [2]: ⊚ (a value of not less than 5% by weight)

VOPc(PhS)8{2,6-(CH3)2PhO}4(PhCH2NH)4 [reference compound]
Max. absorption wavelength (in acetone) [1]: 912 nm

VOPc(PhS)8{2,6-(CH3)2PhO}4{(CH3)2CHO(CH2)3NH}4 [Example 9]
Max. absorption wavelength (in acetone) [1]: 930 nm
Max. absorption wavelength (in chloroform) [1]: 949 nm
Solubility MEX [2]: ⊚ (a value of not less than 5% by weight)
Solubility toluene [2]: ⊚ (a value of not less than 5% by weight)

VOPc(PhS)8{2,6-(CH3)2PhO}4{CH3(CH2)17NH}4 [Example 19]
Max. absorption wavelength (in acetone) [1]: 935 nm
Max. absorption wavelength (in chloroform) [1]: 954 nm
Solubility MEX [2]: ⊚ (a value of not less than 5% by weight)
Solubility toluene [2]: ⊚ (a value of not less than 5% by weight)

VOPc(PhS)8{2,6-(CH3)2PhO}4[{(CH3)2CH}2NCH2CH2NH]4 [Example 3]
Max. absorption wavelength (in acetone) [1]: 952 nm
Max. absorption wavelength (in chloroform) [1]: 970 nm
Solubility MEX [2]: ⊚ (a value of not less than 5% by weight)
Solubility toluene [2]: ⊚ (a value of not less than 5% by weight)
